The text below walks through data of patent US7264795B2, “Sunscreen composition” (Merck Patent Gesellschaft, priority 2001, dated 2007).

Series [1] can be described thus: Differential stripping of the stratum corneum (tape stripping with UV/VIS spectroscopy). The class given is in vitro ADME, porcine. An excerpt:
The goal of this study was to determine and compare the distribution of OMC in the stratum corneum of two different formulations as applied to porcine skin, which serves as a model for in vivo human skin applications. The method used has been established (Weigmann H-J, Lademann J, Meffert H, Schaefer H, Sterry W: Determination of the horny layer profile by tape stripping in combination with optical spectroscopy in the visible range as a prerequisite to quantify percutaneous absorption. Skin Pharmacol Appl Skin Physiol, 12:34-45 (1999)) and is described below. This method is based on conventional stripping procedures combined with UV/VIS spectroscopy to determine both the substance, to be analyzed, and, in parallel, the weight of the comeocytes. This since it is possible to obtain the complete stratum corneum with this stripping procedure, the strips thus can be shown as a horny layer profile.
Porcine ear skin is used due to its availability and well-known similarity to human skin. […] Two formulations are applied to an area of 20 cm^2 with a concentration of 2 mg/cm^2 (200 μg OMC/cm^2) and exposed for one hour. […] Afterwards, topical application and stripping was carried out using a standard procedure (The emulsion is applied with a syringe and evenly distributed with a gloved finger. After pressure application, all strips were removed from the marked area). The stripping is repeated as long as the spectral photometer has a transmission of 99.8% compared to the original tape strip as reference.
After evaluation of the amount of stratum corneum photometrically at 900 nm, the strips are extracted with methanol, centrifuged and decanted. Amounts of OMC concentrations are calculated from the ratio peak area of the OMC to an internal OMC calibration curve. The detection limit for OMC is found to be 1 μg/ml±5%. The experiments are carried out in duplicate.
Non-particulate substances lying in the furrows are distributed evenly due to the applied pressure—this releases the substances from the furrows, while particulate substances often remain. […]

Series [2] can be described thus: Comparative release through an inert lipophilic membrane (Franz diffusion cell). The class given is in vitro ADME. The settings on record: after 6 hours, finite dose 5 mg/cm^2 (572 μg OMC/cell). The text has this: The goal of this study is to determine and compare the release of OMC from two different formulations through an inert lipophilic membrane which serves as a model (Jiang R, Benson H A E, Cross S E, Roberts M S. In vitro human epidermal and polyethylene membrane penetration and retention of sunscreen benzophenone-3 from a range of solvents. Pharm. Res., 15: 1863-1886 (1998)) for in vitro human skin applications. (Jiang R, Robert M S, Prankerd R J, Benson H A E. Percutaneous absorption of sunscreen agents from liquid paraffin: self-association of octyl salicylate and effects on skin flux. J. Pharm. Sci., 86: 791-796 (1997); Shah et al: In vitro release from corticosteorid ointments. J. Pham. Sci., 84(9): 1139-1140 (1995);).
Two formulations are prepared, one with free, the other with encapsulated OMC. Both contained the same amount of OMC (see Table 3).
Tuffryn® membranes (200 nm in pore size) are soaked for 30 minutes in isopropyl myristate and blotted dry with tissue paper prior to use. […]
Analysis is by HPLC, OMC concentrations are calculated from the ratio peak area of the OMC to an internal standard and calibration curve.

Series [3] is described as follows: Epidermal uptake of UV filters by human epidermis (Franz diffusion cell). Format: in vitro ADME. Here is the method:
The goal of this study is to determine and compare both the release of OMC from two different formulations through human epidermal membranes and the epidermal uptake of OMC.
Human female abdominal skin is used to heat-separate the epidermis from the dermis. The epidermal membranes thus obtained are mounted onto a Franz diffusion cell. The receptor cell contains PBS and 4% (w/v) bovine serum albumin, resulting in a pH of 7.4. The temperature is set to 35° C. Each of the two formulations is applied to 3 cells, non-occluded, with a finite dose concentration of 5 mg/cm^2 (572 μg OMC/cell). […] The duration of examination is 6 hours, 200 μl of the receptor phase is removed at specific points of time and analyzed by HPLC. To analyze the epidermal uptake, the remaining formulation is wiped from the surface of the epidermis with alcohol-soaked tissue and the skin is stripped once with adhesive tape, which is then discarded. A circular punch is used to remove a constant area of epidermis exposed to the formulations. After extraction, OMC concentrations are analyzed by HPLC.

For `CCCCC(CC)COC(=O)C=Cc1ccc(OC)cc1` (centres unmarked) [Free OMC, octyl methoxycinnamate], in series [1] (10% OMC formulation, 2 mg/cm^2, exposed one hour, 100% SC = 20 μm), the “Share of the stratum corneum (SC) down to which OMC is found” value was 75 % of the SC. The “Maximum depth in the SC where OMC can be detected” value in series [1] (10% OMC formulation, 2 mg/cm^2, exposed one hour, horny layer about 20 μm) is recorded as no more than 15 μm. Also, in series [1] (strip at 15 μm depth (75% of the SC)), the “OMC amount in the deepest strip” value is listed as 1 μg/cm^2. Besides, in series [2], the “OMC reaching the receptor cell as share of the applied amount” value amounted to 12.5%. In addition, in series [2] (8.8% OMC, n=3), the “OMC reaching the receptor cell” value amounted to 72 µg. Moreover, the “UV filter penetrating the epidermis into the receptor phase” value in series [3] (6 hours, finite dose 5 mg/cm^2 (572 μg OMC/cell), 8.8% OMC) is listed as “no significant amount of UV filter penetrating the epidermis”. Besides, the “Epidermal uptake of OMC per mg of epidermal tissue” value in series [3] (after 6 hours of exposure, finite dose 5 mg/cm^2, 8.8% OMC) was 3.3 μg/mg tissue. For the same compound, the “Epidermal absorption compared to Eusolex UV-Pearls” value in series [3] (heat-separated human epidermis, 6 hours) stood at 3 fold.
